{"source": "patent US20210283211A1", "about": "“COMPOSITIONS AND METHODS OF ALLEVIATING RESISTANCE TO CHEMOTHERAPY” (CITY OF HOPE, priority 2019, published 2021)", "assay_type_in_all_cases": "cell-based, human", "key": {"[1]": {"tested_on": "ITGB4, PXN, USP1, VDAC1, CD133 in patient-derived organoids", "test": "Immunoblot of treated patient-derived organoids", "settings": "48 hours, printed 2.5 mM and 5 mM"}, "[2]": {"tested_on": "ITGB4 expression in H2009 cells", "test": "FACS analysis with ITGB4 antibody after cisplatin", "settings": "cisplatin for 4 days, FACS on day 5", "protocol": "Fluorescence-activated cell sorting (FACS) and analysis: Cells were trypsinized and resuspended (5 million) in PBS with 2% FBS. Cells were stained with ITGB4 antibody conjugated to Alexa Fluor® 488 (5 μl/1 million cells) (R&D Systems, Minneapolis, Minn., USA) and Propidium Iodide Ready Flow™ Reagent (1 drop/1 million cells) (Invitrogen) for 30 minutes at 4° C. The Analytical Cytometry Core Facility at City of Hope carried out and assisted all FACS sorting and analysis experiments. Gates were set to sort cell populations having low 10% and high 10% expression of ITGB4 using the FACSAria™ Fusion (BD Biosciences, San Jose, Calif., USA). Sorted cells were immediately cultured in 12-well plates and treated with cisplatin (1 μM) for 48 hours. Then, equal number of untreated and treated cells were collected and stained with same reagents as above. FACS analysis was performed to determine shifts in cell population using the Attune NxT Flow Cytometer (Invitrogen).\nTo test the predictions made by the model, H2009 cells were treated with cisplatin for 4 days. On day 5, they were subjected to FACS analysis using an ITGB4 antibody. […] In presence of stress, the cells either increased the expression of ITGB4 or the cells having high ITGB4 get selected (FIG. 13B). […] The cells were then counted, and an equal number of cells were stained with ITGB4 antibody and PI and analyzed by FACS sorting."}, "[3]": {"tested_on": "H2009 cells", "test": "IncuCyte cell proliferation and caspase-3/7 apoptosis assay", "settings": "10 μM cisplatin alone", "protocol": "(§1) Cell proliferation and apoptosis assay. Cell proliferation assays were performed using cell lines stably transfected with NucLight Red Lentivirus (Essen Bioscience) to accurately visualize and count the nucleus of a single cell. Cells were seeded on a 96-well plate and allowed to adhere for 24 hours. Test compounds were added at indicated concentrations. Caspase-3/7 Green Apoptosis Reagent (Essen Bioscience) was also added as a green fluorescent indicator of caspase-3/7-mediated apoptotic activity. To monitor cell proliferation and apoptosis over time, the plate was placed in the IncuCyte S3 Live-Cell Analysis System (Essen BioScience) and images were acquired every 2 hours. Data analysis was generated by the IncuCyte software using a red fluorescence mask to accurately count each cell nucleus and a green fluorescence mask to measure apoptosis over time.\n(§2) To determine whether the inhibition in cell proliferation associated with ITGB4 knockdown was due to enhanced apoptosis or reduced cell division (cytostatic), the Essen Bioscience Caspase-3/7 Green apoptosis assay in live cells was conducted. The NucView™[…], a DNA intercalating dye was used to enable quantification of apoptosis over time. The dye is impermeable and non-toxic to cells but once the cell membrane is permeabilized by caspase-3/7, the dye enters the cell and gets activated due to change in pH leading to the generation of green fluorescence that is then detected in real time and quantified using the IncuCyte System (FIG. 4B).\n(§3) To address this, H1993 and H2009 cells were treated with cisplatin for 3 days and the changes were analyzed by immunoblotting. […] Next, H1993 and H2009 cells were transiently transfected with ITGB4 siRNA and 24 hours post-transfection they were treated with 10 μM cisplatin and cell proliferation and caspase activity were determined. […] However, in response to cisplatin in ITGB4 knockdown cells, the fold change dipped to <1, alluding to a cytotoxic effect (FIG. 4C). […] However, cell death was not due to caspase activation but appeared to be due to cell bursting which is seen in anoikis (FIGS. 3K and 3L)."}, "[4]": {"tested_on": "H1993 cells", "test": "IncuCyte cell proliferation and caspase-3/7 apoptosis assay", "protocol": "as §1, §2\nas §3, with “3L). […]” for “3L).”"}, "[5]": {"tested_on": "patient-derived organoids (lung cancer)", "test": "Patient tumor tissue-derived organoid assay (area, caspase activity)", "protocol": "Next, drug efficacy in patient tumor tissue-derived organoids was determined. Approximately 5000 cells/sample from 2 surgical samples were seeded in an ultra-low attachment plate and incubated at 37° C. […] In one of the patient-derived organoids, cisplatin treatment alone decreased spheroid area and increased apoptosis as measured by green intensity (FIG. 11D). […] Indeed, by 72 hours carfilzomib at a concentration of 2.5 μM induced 5-fold increase in caspase activity compared to cisplatin alone but there was not much change in the spheroid area (FIGS. 11E-11F). Thus, no additive effect was apparent in this patient sample. […] The efficacy of ITGB4 antibody in disrupting organoid growth and inducing apoptosis was also tested."}, "[6]": {"tested_on": "ITGB4, PXN, FAK, MET, γH2AX, cleaved PARP in H1993 cells", "test": "Immunoblot", "settings": "cisplatin 10 μM, 3 days", "protocol": "(§4) West blotting: Cell lysates were prepared with 1×RIPA buffer (MilliporeSigma) and denatured in 1× reducing sample buffer at 95° C. for 5 minutes. Protein samples (15 μg) were run on 4-15% TGX gels (Bio-Rad, Hercules, Calif., USA) and transferred onto nitrocellulose membranes (Bio-Rad). Blots were blocked with 5% non-fat milk in TBS-T for 1 hour at room temperature and probed with primary antibody diluted in 2.5% BSA in TBS-T overnight at 4° C. After three washes with TBS-T, blots were incubated with HRP-conjugated secondary antibodies for 2 hours at room temperature. After three more washes, bands of interest were visualized via chemiluminescence using Western Bright ECL HRP substrate (Advansta, Menlo Park, Calif., USA) and imaged with the ChemiDoc MP imager (Bio-Rad).\n(§5) Then a sublethal dose was used to determine the effect of these compounds on ITGB4 and PXN expression and caspase activity (FIG. 9I). […] These eleven compounds were further screened in the cisplatin-resistant cell line H2009. […] Further, carfilzomib was tested in another cisplatin-resistant cell line H1993."}, "[7]": {"tested_on": "ITGB4, PXN, FAK, p27, phospho-Rb, γH2AX, cleaved PARP in H2009 cells", "test": "Immunoblot", "settings": "cisplatin 10 μM, 3 days", "protocol": "as §4, §5"}}, "data": [{"compound": "N.N.[Cl][Pt][Cl]", "note": "[Cisplatin, Cis-diamminedichloroplatinum(II)]", "values": [{"measurement": "protein expression by immunoblot", "setting": "[1]", "result": "minimal effect"}, {"measurement": "decrease in ITGB4 low-expressing cells compared to untreated", "setting": "[2]", "result": 15, "unit": "%"}, {"measurement": "apoptosis", "setting": "[3]", "result": "induced apoptosis in H2009 cell by 72 hours"}, {"measurement": "caspase activity", "setting": "[4]; 10 μM cisplatin alone", "result": "did not induce caspase activity"}, {"measurement": "fold change in cell count", "setting": "[4]; ITGB4 knockdown or 10 μM cisplatin alone, cytostatic", "result": "~1", "unit": "fold"}, {"measurement": "spheroid area", "setting": "[5]; patient LCSC2", "result": "decreased the spheroid area"}, {"measurement": "organoid size", "setting": "[5]; patient LCSC4, cisplatin 5 μM alone, carfilzomib 2.5 μM alone", "result": "decreased the size of the organoid"}, {"measurement": "caspase activity", "setting": "[5]; second patient (LCSC2) organoids, drug alone", "result": "did not induce any caspase activity"}, {"measurement": "protein expression by immunoblot", "setting": "[6]", "result": "reduction in the expression of phosphorylated as well as total FAK and PXN"}, {"measurement": "protein expression by immunoblot", "setting": "[7]", "result": "reduction in the expression of phosphorylated as well as total FAK and PXN"}]}]}
